Measured values published in article PMC3045100, “Cell-Penetrating Penta-Peptides (CPP5s): Measurement of Cell Entry and Protein-Transduction Activity” (Pharmaceuticals, 2010).
Residues, ends and D or L forms follow the SMILES beside them. *: point of attachment. 5FAM = O=C1OC2(c3ccc(O)cc3Oc3cc(O)ccc32)c2ccc(C(=O)*)cc21

Columns and labels:
Jurkat cells = assay: Cell entry in cells lacking caveolin-mediated endocytosis; type: cell-based; conditions: cells reported to lack caveolin-mediated endocytotic activity; data not shown
Description: Chinese hamster ovary (CHO) A745 cells lack proteoglycans in the plasma membrane, and this cell line has been used to determine whether proteoglycans are required for CPP entry. […] (Figure 3c and d). The cell-penetrating activity of CPP5s was also examined in Jurkat cells that are reported to lack caveolin-mediated endocytotic activity.

[1] = system: lysosomes of HeLa cells and DAMI cells; assay: Co-localization of Fam-VPTLK with lysosomes (LysoTracker red); type: cell-based; conditions: Fam-VPTLK 50 μM and LysoTracker 100 nM, 1 h, 37 °C, microscopy
Description: Lysosomes are known to contain molecules which have entered the cell through pinocytosis. To determine whether CPP5s use pinocytotic pathways for their cell entry, the localizations of Fam-labeled CPP5s and lysosomes (labeled by LysoTracker® Red) were compared. […] In contrast, FITC-labeled transferrin and LysoTracker-Red co-localized extensively, which is consistent with the understanding that transferrin enters cells through receptor-mediated endocytosis (Figure 2c).
Figure 2 Mechanism of cell entry of CPP5s. a and b. […] Microscopic analysis of the co-localization of Fam-VPTLK with lysosome-staining dye (LysoTracker™ red DND-99, L7528 Invitrogen). Hela cells (a) and DAMI cells (b) were incubated with Fam-VPTLK (50 μM) and LysoTracker (100 nM) for 1 h at 37 °C. c. FITC-labeled Transferin (FITC-Transferin) co-localized with lysosome. HeLa cells were incubaled with FITC-transferin (100 nM) and LysoTracker (100 nM) for 1 h at 37 °C. d. […] Cells were incubated with peptides for 1 h and the cellular fluorescence intensity was measured by fluorescence microscopy equipped with image analysis software (for Fam-labeled peptides) or FACS (for Tamra-labeled peptides) as described in Experimental Procedures. […] The results are shown as percentages of the fluorescence intensity of inhibitor-treated cells (the intensity of non-treated cells is designated as 100%). […]

HeLa cells [2] = assay: FACS analysis of cell penetration of Fam-VPTLK versus medium concentration; type: cell-based; conditions: 3 h, up to 1.6 mM in medium, triplicate samples
Protocol: For examination of the cell-penetrating activity of 5,6-carboxyfluorescein (Fam)-labeled CPP5 peptides (Fam-VPMLK, Fam-VPTLK), DAMI cells and HeLa cells (5.0×10^4 cells/mL) were incubated with different concentrations of Fam-labeled peptides for different time periods. Excess peptides were removed by extensive washing with Hanks’ buffered saline solution (HBSS) as previously reported and cellular entry of Fam-labeled peptides was analyzed using a fluorescence microscope (Nikon; TE200), a confocal scanning laser microscope (Leica; TCS SP2), and a FACS instrument (XL Aria), or a Coulter EPICS® XL-MCR.

DAMI cells = assay: Cell-penetration activity of Fam-labeled CPP5s, cellular fluorescence by FACS and/or microscopy; type: cell-based, human; set-up: key to Cell Penetration, cell entry confirmed by microscopy only: Cell entry of some peptides was confirmed by microscopy only, and these peptides are indicated with a ‘+’ without a percentage value; conditions: peptides Fam-labeled on the N-terminus, 200 μM, 3 h, 37 °C; for Cell Penetration, cell entry confirmed by microscopy only: intracellular fluorescent signal by microscopy, no comparison with KLPVM; for Cell Penetration (%), percentage of the activity of KLPVM: fluorescence intensity of cells by FACS, mean of triplicate samples
Protocol: Figure 1 Cell-penetration activity of CPP5s. a. List of cell-penetrating penta-peptides (CPP5s). […] Peptide sequences are color-coded to show the constant amphipathic amino acid arrangement in each CPP5. Cell-penetration activity was determined by fluorescence intensity of cells (DAMI cells: a human megakaryocytic cancer cell line) incubated with fluorescein (Fam)-labeled peptides (200 μM) for 3 h at 37 °C as described in Experimental Procedures. Fam was labeled on the N-terminus of all peptides examined. Cells were analyzed by FACS and/or microscopy. The activity of each peptide is shown as a percentage of the activity of KLPVM. Each value represents the mean of triplicate samples. Cell entry of some peptides was confirmed by microscopy only, and these peptides are indicated with a ‘+’ without a percentage value. For cytoprotective activity (right column), the information is based on previous studies and the activity was determined by the protection of cells from Bax overexpression and other apoptotic stimuli such as etoposide treatment. b to e. Cell entry of Fam-labeled VPTLK, KLPVM, TAT, and poly-arginine (R8). HeLa cells were incubated with Fam-labeled VPTLK, KLPVM (200 μM), Fam-TAT (10 μM), and Fam-R8 (10 μM) for 1 h at 37 °C. Images are at 20× magnification. f. Comparison of the cytotoxicity of CPP5 and TAT. Primary cultured mouse embryonic fibroblast (MEF) cells were treated with various concentrations of peptides for 24 h as indicated. Then, apoptosis was analyzed as described in Experimental Procedures. Each bar represents the mean of triplicate samples and standard error. TEXT PRINTED IN THE PICTURE: (a) VPMLK: Cell Penetration (%): 97 ± 4.3; Cytoprotection: + | (a) VPTLK: Cell Penetration (%): 61 ± 1.7; Cytoprotection: + | (a) VPALR: Cell Penetration (%): 79 ± 1.5; Cytoprotection: + | (a) VSALK: Cell Penetration (%): 90 ± 3; Cytoprotection: N.D. | (a) PMLKE: Cell Penetration (%): 65 ± 3.7; Cytoprotection: + | (a) VPALK: Cell Penetration (%): 71 ± 2.2; Cytoprotection: + | (a) VSLKK: Cell Penetration (%): +; Cytoprotection: - | (a) VSGKK: Cell Penetration (%): +; Cytoprotection: - | (a) KLPVM: Cell Penetration (%): 100 ± 2.3; Cytoprotection: - | (a) IPMIK: Cell Penetration (%): 47 ± 1.4; Cytoprotection: - | (a) KLGVM: Cell Penetration (%): +; Cytoprotection: - | (a) KLPVT: Cell Penetration (%): +; Cytoprotection: - | (a) VPMIK: Cell Penetration (%): +; Cytoprotection: N.D. | (a) IPALK: Cell Penetration (%): +; Cytoprotection: N.D. | (a) IPMLK: Cell Penetration (%): +; Cytoprotection: N.D. | (a) VPTLQ: Cell Penetration (%): 70 ± 4; Cytoprotection: - | (a) QLPVM: Cell Penetration (%): +; Cytoprotection: - | (a) ELPVM: Cell Penetration (%): +; Cytoprotection: - | (a) VPTLE: Cell Penetration (%): 80 ± 1.9; Cytoprotection: N.D.
CPP5s that were designed based on the Bax-binding domain of Ku70 of several species are named Bax-Inhibiting Peptides (BIPs); they are VPMLK, PMLKE, VPTLK, VPALR, and VPALK. VPMLK and PMLKE were designed from human Ku70, and the same sequence exists in the Ku70 homologues of dog and monkey. VPTLK and VPALR are based on mouse and rat Ku70, respectively. VPALK was designed from cattle Ku70, and the same sequence exists in Ku70 of the African clawed frog. Cytoprotective activities of these BIPs have been previously reported, both in cell culture and animal models. […] The observed variation in cell-entering activity of Fam-labeled-CPP5s is shown in Figure 1a as a percentage of the activity of KLPVM. In all cases, Fam was attached to the N-terminal amino acid. For some CPP5s, cell-penetration activity was confirmed by detection of an intracellular fluorescent signal by microscopy. These latter results are indicated with ‘+’ symbols, and a quantitative comparison with the activity of KLPVM was not performed. […]

[3] = system: Primary cultured mouse embryonic fibroblast (MEF) cells; assay: Cytotoxicity (apoptosis, Hoechst nuclear staining) of CPP5 and TAT; type: cell-based
Protocol: List of cell-penetrating penta-peptides (CPP5s). […] Peptide sequences are color-coded to show the constant amphipathic amino acid arrangement in each CPP5. […] Fam was labeled on the N-terminus of all peptides examined. Cells were analyzed by FACS and/or microscopy. The activity of each peptide is shown as a percentage of the activity of KLPVM. Each value represents the mean of triplicate samples. Cell entry of some peptides was confirmed by microscopy only, and these peptides are indicated with a '+' without a percentage value. For cytoprotective activity (right column), the information is based on previous studies and the activity was determined by the protection of cells from Bax overexpression and other apoptotic stimuli such as etoposide treatment. b to e. Cell entry of Fam-labeled […], and poly-arginine (R8). […] Comparison of the cytotoxicity of CPP5 and TAT. Primary cultured mouse embryonic fibroblast (MEF) cells were treated with various concentrations of peptides for 24 h as indicated. Then, apoptosis was analyzed as described in Experimental Procedures. Each bar represents the mean of triplicate samples and standard error.

HeLa cells [4] = assay: Effect of pinocytosis and endocytosis inhibitors on cell entry of Fam- or Tamra-labeled peptides; type: cell-based; conditions: serum-free DMEM, cytochalasin D 10 µM 30 min pre-treatment, then Tamra-labeled peptide 1 h, VPTLK 30 μM, R8 10 μM, FACS, mean of three experiments and standard error
Protocol: HeLa cells were incubated with each inhibitor in serum-free DMEM for 30 min, followed by incubation for 1 h with Fam-labeled CPP5 peptides (30 μM). Then, the cells were extensively washed with Hanks’ Buffered Salt Solution (HBSS) and complete DMEM, prior to the detection of fluorescence by microscopy and FACS. None of amiloride, chlorpromazine, cytochalasin D, Filipin III, nocodazole and methyl-beta-cyclodextrin blocked the entry of Fam-labeled VPTLK and KLPVM into HeLa cells. […] As a control experiment to validate the effectiveness of these inhibitors, FITC-transferrin (for chlorpromazine) and rhodamine-labeled EGF (for cytochalasin D and amiloride) were used. […] To compare the cell-penetrating mechanism between CPP5s and arginine-rich CPPs, the uptake of TAT and R8 was also examined in the presence of these inhibitors.
Figure 2 Mechanism of cell entry of CPP5s. a and b. […] Cells were incubated with peptides for 1 h and the cellular fluorescence intensity was measured by fluorescence microscopy equipped with image analysis software (for Fam-labeled peptides) or FACS (for Tamra-labeled peptides) as described in Experimental Procedures. […] The results are shown as percentages of the fluorescence intensity of inhibitor-treated cells (the intensity of non-treated cells is designated as 100%). […]

Row | Compound | Cell Penetration, cell entry confirmed by microscopy only (DAMI cells) | Cell Penetration (%), percentage of the activity of KLPVM (DAMI cells) [%] | other results
1 | CSCC[C@H](NC(=O)[C@@H](NC(=O)[C@@H]1CCCN1C(=O)[C@H](CC(C)C)NC(=O)[C@H](CCCCN)NC(=O)c1ccc2c(c1)C(=O)OC21c2ccc(O)cc2Oc2cc(O)ccc21)C(C)C)C(=O)O [Fam-KLPVM] (5FAM-KLPVM-OH) |  |  | Entry into Jurkat cells (Jurkat cells): able to enter Jurkat cells
2 | CC(C)C[C@H](NC(=O)[C@@H](NC(=O)[C@@H]1CCCN1C(=O)[C@@H](NC(=O)c1ccc2c(c1)C(=O)OC21c2ccc(O)cc2Oc2cc(O)ccc21)C(C)C)[C@@H](C)O)C(=O)N[C@@H](CCCCN)C(=O)O [Fam-VPTLK] (5FAM-VPTLK-OH) |  |  | Entry into Jurkat cells (Jurkat cells): able to enter Jurkat cells; Co-localization with lysosomes [1]: partially co-localizes with lysosomes; Cell entry of Fam-VPTLK as a function of medium concentration (HeLa cells [2]): linear increase up to the maximum concentration examined
3 | ELPVM [cell-penetrating penta-peptide (CPP5)] | + |  | 
4 | IPALK [cell-penetrating penta-peptide (CPP5)] | + |  | 
5 | IPMIK [cell-penetrating penta-peptide (CPP5)] |  | 47 ± 1.4 | 
6 | IPMLK [cell-penetrating penta-peptide (CPP5)] | + |  | 
7 | KLGVM [cell-penetrating penta-peptide (CPP5)] | + |  | 
8 | KLPVM |  | 100 ± 2.3 | Cytotoxic effect at 1.6 mM in the cell culture medium [3]: did not show significant cytotoxic effects
9 | KLPVT [cell-penetrating penta-peptide (CPP5)] | + |  | 
10 | PMLKE |  | 65 ± 3.7 | 
11 | QLPVM [cell-penetrating penta-peptide (CPP5)] | + |  | 
12 | Tamra-VPTLK [Tamra-labeled VPTLK] |  |  | Relative Fluorescence Intensity (No Inhibitor=100%), Cytochalasin D, Tamra-labeled peptides (HeLa cells [4]): 57±4%
13 | VPALK |  | 71 ± 2.2 | 
14 | VPALR |  | 79 ± 1.5 | 
15 | VPMIK [cell-penetrating penta-peptide (CPP5)] | + |  | 
16 | VPMLK |  | 97 ± 4.3 | 
17 | VPTLE [cell-penetrating penta-peptide (CPP5)] |  | 80 ± 1.9 | 
18 | VPTLQ [cell-penetrating penta-peptide (CPP5)] |  | 70 ± 4 | 
19 | VSALK [cell-penetrating penta-peptide (CPP5)] |  | 90 ± 3 | 
20 | VSGKK [cell-penetrating penta-peptide (CPP5)] | + |  | 
21 | VSLKK [cell-penetrating penta-peptide (CPP5)] | + |  | 
